Here are results for 39 molecules from US8778923B2, “GLP-1 receptor modulators” (Receptos, Inc., priority 2011, dated 2014).

This assay concerns the target T1, GLP-1R (Homo sapiens, UniProt P43220).
T1 construct: host or cells: CRE-bla CHO-K1
Nature of the assay: EC20 GLP-1(9-36) PAM cAMP assay: dose response of compound in the presence of fixed concentration of GLP-1(9-36). It is filed as cell-based. Particulars: GLP-1R CRE-bla CHO-K1 cells, compound dose response in presence of fixed concentration of GLP-1(9-36). The method, then: EC20 GLP-1(9-36) PAM cAMP Assay: Dose Response of Compound in the Presence of Fixed Concentration of GLP-1 (9-36).
GLP-1R CRE-bla CHO-K1 cells cultured in growth medium (DMEM-High glucose, 10% dialyzed FBS, 0.1 mM NEAA, 25 mM Hepes, 100 U/mL penicillin/100 μg/mL streptomycin, 5 μg/mL Blasticidin, 600 μg/mL Hygromycin) were tryspsinized and plated in suspension into 384 well white flat bottom plates at 5000 cells/well in 12 μL assay buffer (Hanks Balanced Salt solution, 10 mM Hepes, 0.1% BSA, pH 7.4). A 5× compound dose response curve (12-point) was generated in assay buffer containing 1.5 mM IBMX, 12.5% DMSO. GLP-1(9-36) was diluted to 4.2 μM in assay buffer containing 1.5 mM IBMX and 12.5% DMSO. The 5× compound dose response was added (3 μL), followed by 0.5 μL of GLP-1(9-36) and cells were incubated for 30 min at 37° C. Direct detection of cAMP was carried out using DiscoveRx HitHunter cAMP kit according to manufacturer's instructions and luminescence was read using a SpectraMax M5 plate reader. Luminescence was converted to total cAMP using a cAMP standard curve and data was analyzed by non-linear regression to determine the EC50 and Emax.
GLP-1(7-36): […]-NH2. GLP-1(9-36): […]-NH2. GLP-1(7-36) was purchased from GenScript. GLP-1(9-36) was purchased from Biopeptide Co., Inc.
(In general: Cyclic AMP is a second messenger, typically raised through Gs and lowered through Gi signalling.)

Molecules are shown by their SMILES.

T1 sequence (P43220 24-463): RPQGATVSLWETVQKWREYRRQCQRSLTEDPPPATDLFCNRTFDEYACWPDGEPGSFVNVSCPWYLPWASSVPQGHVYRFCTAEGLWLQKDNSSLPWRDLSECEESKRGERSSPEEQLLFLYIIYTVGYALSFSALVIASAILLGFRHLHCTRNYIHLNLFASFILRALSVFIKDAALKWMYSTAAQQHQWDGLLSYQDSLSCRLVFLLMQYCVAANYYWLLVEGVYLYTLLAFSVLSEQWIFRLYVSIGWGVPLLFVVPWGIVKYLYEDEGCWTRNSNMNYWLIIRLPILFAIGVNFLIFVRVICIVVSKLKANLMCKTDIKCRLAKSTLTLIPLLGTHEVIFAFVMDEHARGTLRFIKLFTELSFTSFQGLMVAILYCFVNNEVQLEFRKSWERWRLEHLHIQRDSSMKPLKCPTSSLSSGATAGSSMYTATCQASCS
T1 sequence (P01275 100-127 partner limits assumed): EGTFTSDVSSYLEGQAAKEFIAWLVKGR

What is called EC50 is the concentration at which the effect is half-maximal. For `CCCCCCCOc1ccc(-c2noc(-c3ccc(C[C@H](NC(=O)c4ccc(C(C)(C)C)cc4)C(=O)O)cc3)n2)cc1` [Compound 1, (S)-2-(4-(tert-butyl)benzamido)-3-(4-(3-(4-(heptyloxy)phenyl)-1,2,4-oxadiazol-5-yl)phenyl)propanoic acid], the EC50 lay within 800 to 2500 nM.

With `CCCCCCCOc1ccc(-c2nc(-c3ccc(C[C@H](NC(=O)c4ccc(C(C)(C)C)cc4)C(=O)O)cc3)no2)cc1` [Compound 2, (S)-2-(4-(tert-butyl)benzamido)-3-(4-(5-(4-(heptyloxy)phenyl)-1,2,4-oxadiazol-3-yl)phenyl)propanoic acid], the half-maximal effective concentration (EC50) lay in the range of 2500 to 5000 nM.

With `Cc1ccc(-c2ccc(-c3nc(-c4ccc(C[C@H](NC(=O)c5ccc(C(C)(C)C)cc5)C(=O)O)cc4)no3)cc2)cc1` [Compound 3], the EC50 was 5000 to 10000 nM.

Consider `CC(C)(C)c1ccc(C(=O)N[C@@H](Cc2ccc(-c3noc(-c4ccc(-c5ccccc5)cc4)n3)cc2)C(=O)O)cc1` [Compound 4], for which the EC50 lay in the range of 5000 to 10000 nM.

With `CC(C)(C)c1ccc(C(=O)N[C@@H](Cc2ccc(-c3noc(-c4ccc(N5CCCCC5)cc4)n3)cc2)C(=O)O)cc1` [Compound 5], the 50% effective concentration (EC50) lay in the range of 2500 to 5000 nM.

Regarding `CC1CCN(c2ccc(-c3nc(-c4ccc(C[C@H](NC(=O)c5ccc(C(C)(C)C)cc5)C(=O)O)cc4)no3)cc2)CC1` [Compound 6], the 50% effective concentration (EC50) lay within 5000 to 10000 nM.

As for `Cc1ccc(-c2nc(-c3ccc(C[C@H](NC(=O)c4ccc(C(C)(C)C)cc4)C(=O)O)cc3)no2)cc1` [Compound 7], the EC50 was in the range of 5000 to 10000 nM.

In the case of `CC(C)(C)c1ccc(C(=O)N[C@@H](Cc2ccc(-c3noc(-c4ccc(C(C)(C)C)cc4)n3)cc2)C(=O)O)cc1` [Compound 8], the concentration giving a half-maximal response (EC50) fell in the range of 800 to 2500 nM.

Take `COc1cc(C)ccc1-c1nc(-c2ccc(C[C@H](NC(=O)c3ccc(C(C)(C)C)cc3)C(=O)O)cc2)no1` [Compound 9]: the EC50 lay within 5000 to 10000 nM.

As for `CC(C)c1ccc(-c2nc(-c3ccc(C[C@H](NC(=O)c4ccc(C(C)(C)C)cc4)C(=O)O)cc3)no2)cc1` [Compound 10], the EC50 fell in the range of 2500 to 5000 nM.

Take `CC(C)(C)c1ccc(C(=O)N[C@@H](Cc2ccc(-c3noc(-c4ccc(C(F)(F)F)cc4)n3)cc2)C(=O)O)cc1` [Compound 11]: the EC50 fell in the range of 800 to 2500 nM.

As to `Cc1cccc(-c2ccc(-c3nc(-c4ccc(C[C@H](NC(=O)c5ccc(C(C)(C)C)cc5)C(=O)O)cc4)no3)cc2)c1` [Compound 13], the EC50 is 800 to 2500 nM.

`Cc1ccccc1-c1ccc(-c2nc(-c3ccc(C[C@H](NC(=O)c4ccc(C(C)(C)C)cc4)C(=O)O)cc3)no2)cc1` [Compound 14]: the 50% effective concentration (EC50) lay in the range of 2500 to 5000 nM.

With `COc1ccc(-c2ccc(-c3nc(-c4ccc(C[C@H](NC(=O)c5ccc(C(C)(C)C)cc5)C(=O)O)cc4)no3)cc2)cc1` [Compound 15], the EC50 lay in the range of 2500 to 5000 nM.

Turning to `CC(C)(C)c1ccc(C(=O)N[C@@H](Cc2ccc(-c3noc(-c4ccc(-c5ccc(Cl)cc5)cc4)n3)cc2)C(=O)O)cc1` [Compound 16], the 50% effective concentration (EC50) was in the range of 5000 to 10000 nM.

Consider `CC(C)(C)c1ccc(C(=O)N[C@@H](Cc2ccc(-c3noc(-c4ccc(-c5cccc(Cl)c5)cc4)n3)cc2)C(=O)O)cc1` [Compound 17], for which the half-maximal effective concentration (EC50) lay within 2500 to 5000 nM.

Consider `CC(C)(C)c1ccc(C(=O)N[C@@H](Cc2ccc(-c3noc(-c4ccc(-c5ccccc5Cl)cc4)n3)cc2)C(=O)O)cc1` [Compound 18], for which the EC50 fell in the range of 800 to 2500 nM.

In the case of `CC(C)(C)c1ccc(C(=O)N[C@@H](Cc2ccc(-c3noc(-c4ccc(-c5ccccc5F)cc4)n3)cc2)C(=O)O)cc1` [Compound 19], the half-maximal effective concentration (EC50) is 800 to 2500 nM.

Consider `CC(C)(C)c1ccc(C(=O)N[C@@H](Cc2ccc(-c3noc(-c4ccc(-c5cccc(F)c5)cc4)n3)cc2)C(=O)O)cc1` [Compound 20], for which the concentration for a half-maximal effect (EC50) lay within 800 to 2500 nM.

For the molecule `CC(C)(C)c1ccc(C(=O)N[C@@H](Cc2ccc(-c3noc(-c4ccc(-c5ccc(F)cc5)cc4)n3)cc2)C(=O)O)cc1` [Compound 21], the EC50 is 2500 to 5000 nM.

On to `CC(C)(C)c1ccc(C(=O)N[C@@H](Cc2ccc(-c3noc(-c4ccc(-c5ccc(F)c(F)c5)cc4)n3)cc2)C(=O)O)cc1` [Compound 22], for which the EC50 lay within 2500 to 5000 nM.

Consider `CC(C)(C)c1ccc(C(=O)N[C@@H](Cc2ccc(-c3noc(-c4ccc(-c5cc(F)ccc5F)cc4)n3)cc2)C(=O)O)cc1` [Compound 23], for which the EC50 was 2500 to 5000 nM.

Take `CC(C)(C)c1ccc(C(=O)N[C@@H](Cc2ccc(-c3noc(-c4ccc(-c5ccc(F)cc5F)cc4)n3)cc2)C(=O)O)cc1` [Compound 24]: the EC50 lay in the range of 800 to 2500 nM.

On to `COc1ccc(-c2ccc(-c3nc(-c4ccc(C[C@H](NC(=O)c5ccc(C(C)(C)C)cc5)C(=O)O)cc4)no3)cc2)c(OC)c1` [Compound 25], for which the EC50 is 800 to 2500 nM.

`COc1cc(OC)cc(-c2ccc(-c3nc(-c4ccc(C[C@H](NC(=O)c5ccc(C(C)(C)C)cc5)C(=O)O)cc4)no3)cc2)c1` [Compound 26]: the EC50 lay within 2500 to 5000 nM.

`COc1cc(C(F)(F)F)ccc1-c1ccc(-c2nc(-c3ccc(C[C@H](NC(=O)c4ccc(C(C)(C)C)cc4)C(=O)O)cc3)no2)cc1` [Compound 27]: the EC50 was in the range of 800 to 2500 nM.

As to `CC(C)(C)c1ccc(C(=O)N[C@@H](Cc2ccc(-c3noc(-c4ccc(-c5cccc(C#N)c5)cc4)n3)cc2)C(=O)O)cc1` [Compound 28], the concentration giving a half-maximal response (EC50) lay in the range of 2500 to 5000 nM.

As for `CC(C)(C)c1ccc(C(=O)N[C@@H](Cc2ccc(-c3noc(-c4ccc(-c5ccc(C#N)cc5)cc4)n3)cc2)C(=O)O)cc1` [Compound 29], the half-maximal effective concentration (EC50) lay within 800 to 2500 nM.

For the molecule `COc1ccc(-c2ccc(-c3nc(-c4ccc(C[C@H](NC(=O)c5ccc(C(C)(C)C)cc5)C(=O)O)cc4)no3)cc2)cc1OC` [Compound 30], the 50% effective concentration (EC50) was 800 to 2500 nM.

Turning to `CC(C)(C)c1ccc(C(=O)N[C@@H](Cc2ccc(-c3noc(-c4ccc(-c5ccccc5C#N)cc4)n3)cc2)C(=O)O)cc1` [Compound 31], the EC50 lay in the range of 800 to 2500 nM.

In the case of `CC(C)(C)c1ccc(C(=O)N[C@@H](Cc2ccc(-c3noc(-c4ccc(N5CCCCC5)nc4)n3)cc2)C(=O)O)cc1` [Compound 32], the concentration giving a half-maximal response (EC50) is 5000 to 10000 nM.

As to `CC(C)Oc1ccc(-c2nc(-c3ccc(C[C@H](NC(=O)c4ccc(C(C)(C)C)cc4)C(=O)O)cc3)no2)cc1` [Compound 33], the 50% effective concentration (EC50) is 2500 to 5000 nM.

As for `CCCOc1ccc(-c2nc(-c3ccc(C[C@H](NC(=O)c4ccc(C(C)(C)C)cc4)C(=O)O)cc3)no2)cc1` [Compound 34], the concentration for a half-maximal effect (EC50) fell in the range of 2500 to 5000 nM.

`CC(C)(C)c1ccc(C(=O)N[C@@H](Cc2ccc(-c3noc(-c4ccc(Oc5ccccc5)cc4)n3)cc2)C(=O)O)cc1` [Compound 35]: the EC50 fell in the range of 2500 to 5000 nM.

In the case of `CC(C)(C)c1ccc(C(=O)N[C@@H](Cc2ccc(-c3noc(-c4ccc(OCc5ccccc5)cc4)n3)cc2)C(=O)O)cc1` [Compound 36], the EC50 is 2500 to 5000 nM.

For the molecule `COc1ccc(-c2nc(-c3ccc(C[C@H](NC(=O)c4ccc(C(C)(C)C)cc4)C(=O)O)cc3)no2)cc1OC` [Compound 37], the half-maximal effective concentration (EC50) is 2500 to 5000 nM.

`COc1cc(OC)cc(-c2nc(-c3ccc(C[C@H](NC(=O)c4ccc(C(C)(C)C)cc4)C(=O)O)cc3)no2)c1` [Compound 38]: the EC50 was 800 to 2500 nM.

For the molecule `COc1cc(-c2nc(-c3ccc(C[C@H](NC(=O)c4ccc(C(C)(C)C)cc4)C(=O)O)cc3)no2)cc(OC)c1OC` [Compound 39], the concentration giving a half-maximal response (EC50) was in the range of 800 to 2500 nM.

On to `CSc1ccc(-c2nc(-c3ccc(C[C@H](NC(=O)c4ccc(C(C)(C)C)cc4)C(=O)O)cc3)no2)cc1` [Compound 40], for which the concentration for a half-maximal effect (EC50) lay in the range of 2500 to 5000 nM.
